The results in this text go back to ChEMBL document CHEMBL5532667 (J Med Chem, 2024).

Values after ≈ are worked out from the molar mass of the structure shown.

The target in data set [1] is T1, Progesterone receptor (Homo sapiens, UniProt P06401).
T1 sequence (P06401 whole entry): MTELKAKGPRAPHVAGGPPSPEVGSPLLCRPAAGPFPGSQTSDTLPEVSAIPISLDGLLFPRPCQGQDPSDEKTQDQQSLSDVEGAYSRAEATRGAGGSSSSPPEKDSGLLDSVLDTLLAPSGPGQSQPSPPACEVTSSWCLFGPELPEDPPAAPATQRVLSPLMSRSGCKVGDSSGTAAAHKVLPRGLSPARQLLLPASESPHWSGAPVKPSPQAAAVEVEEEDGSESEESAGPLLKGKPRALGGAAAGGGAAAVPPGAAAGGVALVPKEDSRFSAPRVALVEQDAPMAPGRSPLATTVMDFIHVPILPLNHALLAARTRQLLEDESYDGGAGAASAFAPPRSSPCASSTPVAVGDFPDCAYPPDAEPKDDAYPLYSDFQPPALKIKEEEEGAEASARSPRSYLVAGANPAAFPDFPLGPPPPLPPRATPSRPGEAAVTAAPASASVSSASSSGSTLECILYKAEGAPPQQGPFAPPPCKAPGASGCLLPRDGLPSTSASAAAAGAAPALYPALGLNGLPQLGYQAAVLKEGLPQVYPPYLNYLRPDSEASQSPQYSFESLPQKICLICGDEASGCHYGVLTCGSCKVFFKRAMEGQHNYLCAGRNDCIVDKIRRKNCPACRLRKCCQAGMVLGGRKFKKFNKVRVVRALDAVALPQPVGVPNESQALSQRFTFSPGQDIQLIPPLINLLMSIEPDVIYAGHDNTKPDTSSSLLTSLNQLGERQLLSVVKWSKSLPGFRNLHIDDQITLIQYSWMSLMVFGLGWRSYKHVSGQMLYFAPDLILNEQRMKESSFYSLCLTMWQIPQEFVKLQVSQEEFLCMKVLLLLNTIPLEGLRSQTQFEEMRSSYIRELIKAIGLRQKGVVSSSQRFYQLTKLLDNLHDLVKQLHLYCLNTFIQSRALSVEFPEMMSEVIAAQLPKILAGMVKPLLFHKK
Type of data set: cell-based, HEK293T.
Description: Antagonist activity at PR in HEK293T cells assessed as reduction in transcriptional activity incubated for 24 hrs by britelite plus reagent based plate reader assay

Data set [2] concerns the target T2, Thyroid hormone receptor beta (Homo sapiens, UniProt P10828).
T2 sequence (P10828 whole entry): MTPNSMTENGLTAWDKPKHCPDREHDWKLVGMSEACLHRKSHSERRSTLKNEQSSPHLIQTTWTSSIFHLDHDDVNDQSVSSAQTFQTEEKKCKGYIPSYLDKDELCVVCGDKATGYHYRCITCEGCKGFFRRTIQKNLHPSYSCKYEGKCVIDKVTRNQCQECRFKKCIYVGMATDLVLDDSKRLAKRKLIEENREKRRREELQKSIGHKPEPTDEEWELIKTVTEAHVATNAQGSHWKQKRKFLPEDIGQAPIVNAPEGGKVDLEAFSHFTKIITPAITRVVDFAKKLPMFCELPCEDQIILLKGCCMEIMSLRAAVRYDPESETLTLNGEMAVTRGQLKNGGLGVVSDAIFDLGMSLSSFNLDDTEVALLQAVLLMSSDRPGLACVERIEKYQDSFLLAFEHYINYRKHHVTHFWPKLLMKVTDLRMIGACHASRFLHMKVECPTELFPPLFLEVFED
It counts as cell-based, HEK293T.
Description: Antagonist activity at TRbeta in HEK293T cells assessed as reduction in transcriptional activity incubated for 24 hrs by britelite plus reagent based plate reader assay

A short description of data set [3]: in vivo. As to conditions: C57BL/6, mouse, iv, 1 mg/kg.
Data set [4] can be described thus: in vivo. The following applies: C57BL/6, mouse, iv, 1 mg/kg. The source holds these as a separate data set.
Data set [5] in a line: in vivo. The following applies: C57BL/6, mouse, iv, 1 mg/kg. This is another data set of the same source.
Data set [6] is described as follows: in vivo. The following applies: C57BL/6, mouse, iv, 1 mg/kg. This is another data set of the same source.
Data set [7] in a line: in vivo. As to conditions: C57BL/6, mouse, iv, 1 mg/kg. The source holds these as a separate data set.
A short description of data set [8]: in vivo. The following applies: C57BL/6, mouse, brain, iv, 1 mg/kg.
Data set [9] has as its system NIH3T3. Briefly: cells. As to conditions: Mus musculus, BALB/c, NIH3T3, light or radiation study.
Description: Phototoxicity against BALB/c mouse 3T3 cells assessed as reduction in cell viability preincubated for 1 hr followed by 5 J/cm2 irradiation and subsequent replacement of medium without compound and measured after 24 hrs by neutral red dye based assay
Data set [10] in a line: in vitro. The following applies: mouse, nih3t3.
Description: Dark toxicity against BALB/c mouse 3T3 cells assessed as reduction in cell viability incubated for 1 hr by neutral red dye based assay

Turning to `C[C@](O)(CN1CC2CC(C1)N2c1ccc(C#N)cc1)C(=O)Nc1cnc(C#N)c(C(F)(F)F)c1`, the results for the IC50 in data set [1] and in data set [2] were 3.5 µM and greater than 10 µM, respectively.
In data set [3], `C[C@](O)(CN1CC2CC(C1)N2c1ccc(C#N)cc1F)C(=O)Nc1cnc(C#N)c(C(F)(F)F)c1` had a half-life at 24 h of 54.6 min. In [4], this molecule had a clearance at 24 h of 37.8 mL/min/kg. Moreover, the AUC(0-t) at 24 h in data set [5] turned out to be 444 ng·h/mL. In data set [6], the C0 at 24 h stood at 1060 ng/mL. Also, the Vd at 24 h in data set [7] came out at 1.35 L/kg. Further, the Kp at 24 h in data set [8] was 0.45.
In [9], `CN(C)CCCN1c2ccccc2Sc2ccc(Cl)cc21` [CHLORPROMAZINE] came in with an IC50 of 0.93 µg/mL (≈ 2.92 µM). The molecule also returned an IC50 at 1 h in data set [10] of 45.1 µg/mL (≈ 141 µM).
